Laboratory results published in US20230271949A1, “GLP-1R MODULATING COMPOUNDS” (ASCLETIS BIOSCIENCE CO., LTD., priority 2022, published 2023).
pEC50, pIC50, pKi: −log10 of the molar value.

Key:
GLP-1R [1] = molecular target: T1, GLP-1R (Homo sapiens, UniProt P43220); test: GLP-1R agonist cAMP stimulation assay (HTRF cAMP); assay type: cell-based; details: HEK293 cell line expressing GLP-1 target; HTRF cAMP agonist mode, 30 min at RT
Procedure, shortened: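 Read-out was HTRF (665/615 ratio), interpolated onto a cAMP standard curve and normalised to DMSO (0%) and maximal GLP-1(7-37) reference (100%) wells. Assay: GLP-1R cells at 1.0×E5/mL incubated with compound dilution series (3-fold, 10 points) for 30 min at room temperature before 60 min detection.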

GLP-1R [2] = molecular target: T1, GLP-1R; test: Tag-lite binding assay (competition with GLP-1 receptors red agonist); details: for pIC50: HEK293 GLP-1 cells labeled with SNAP-Lumi4-Tb, red agonist 4.917 nM, 23° C., 2 h; for pKi: calculated from sample IC50 and red agonist Kd
Procedure: B. Tag-Lite Binding Assay
The cell line was constructed by WuXi.
10) Dispense cells into cell plate (1.8 M cells/well in 2 ml medium of 6-well plate, total 4 wells).
Second Day: Tag-Lite Binding Assay
3) The cell culture medium is removed from the 6-well plate and then 1 mL of Tag-lite SNAP-Lumi4-Tb diluted in Tag-lite labeling medium are added gently on the cells.
7) The testing compounds and reference compound are serially diluted with 3-fold, 10 points using Echo, then transfer 100 nL compounds to the assay plate.
8) Add the labeled cells to each well according to the plate map, 10000 cells/10 uL/well. Centrifuge the plate at 1000 rpm for 1 min.
9) Incubate the plate at 23° C., 30 min.
10) Add 50 nL of red agonist (final conc.: 4.917 nM) to destination plate using Echo.
11) Incubate the plate at 23° C. for 2 h.
12) Read the plate on an HTRF® compatible reader (at 665 nm and 620 nm).
% Inhibition=100%−(Ratio−LC)/(HC−LC)*100%
HC: The average ratio of adding DMSO wells
LC: The average ratio of adding the top concentration of reference compounds wells
b) The “log (inhibitor) vs. response—Variable slope” model in GraphPad Prism 5.0 was used to fit the dose-response curve of each sample. The sample concentration (x) and its corresponding % Inhibition data (y) were substituted into the model. The sample concentration (abscissa) was x=log(x) transformed. The transformed xy was used as the sample curve to obtain the IC50.
c) Calculate the sample Ki according to the sample IC50 and red agonist Kd. S in the formula is the actual used concentration of red agonist.

T1 sequence (P43220 24-463): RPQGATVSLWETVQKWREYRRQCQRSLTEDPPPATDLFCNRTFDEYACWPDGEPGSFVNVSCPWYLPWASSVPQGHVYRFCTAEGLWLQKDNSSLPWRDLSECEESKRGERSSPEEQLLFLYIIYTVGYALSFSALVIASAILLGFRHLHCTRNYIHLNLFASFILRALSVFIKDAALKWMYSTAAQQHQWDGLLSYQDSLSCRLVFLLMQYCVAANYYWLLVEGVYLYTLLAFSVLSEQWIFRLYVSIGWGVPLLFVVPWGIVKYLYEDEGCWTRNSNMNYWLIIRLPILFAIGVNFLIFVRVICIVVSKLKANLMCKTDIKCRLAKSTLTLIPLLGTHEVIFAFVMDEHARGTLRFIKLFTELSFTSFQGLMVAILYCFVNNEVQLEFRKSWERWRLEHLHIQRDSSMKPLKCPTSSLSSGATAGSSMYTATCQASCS

SMILES	pEC50 (GLP-1R [1])	pIC50 (GLP-1R [2])	pKi (GLP-1R [2])
O=C(Nc1ccc2c(c1)nc(CN1CC=C(c3cccc(OCc4ccc(Cl)cc4F)n3)CC1)n2C[C@@H]1CCO1)c1ccc2c(c1)C1(CC1)C(=O)N2 [Compound 203]	9.62	6.80	7.04
Cc1n[nH]c2c(F)cc(C(=O)Nc3ccc4c(c3)nc(CN3CC=C(c5cccc(OCc6ccc(Cl)cc6F)n5)CC3)n4C[C@@H]3CCO3)cc12 [Compound 196]	9.77	6.82	7.06
O=C(NCC(=O)N1CC(F)(F)C[C@H]1C(=O)O)c1ccc2c(c1)nc(CN1CCC(c3cccc(OCc4ccc(Cl)cc4F)n3)CC1)n2C[C@@H]1CCO1 [Compound 62]	9.29	5.58	5.88
Cc1n[nH]c2c(C)cc(NC(=O)c3ccc4c(c3)nc(CN3CCC(c5cccc6c5OC(C)(c5ccc(C#N)cc5F)O6)CC3)n4CC3CCO3)cc12 (stereo not drawn) [Compound 335]	9.01	5.96	6.21
Cc1n[nH]c2c(C)cc(C(=O)Nc3ccc4c(c3)nc(CN3CC=C(c5cccc(OCc6ccc(C#N)cc6F)n5)CC3)n4C[C@@H]3CCO3)cc12 [Compound 229]	9.68	6.92	7.12
Cc1n[nH]c2c(C)cc(NC(=O)c3ccc4c(c3)nc(CN3CC=C(c5cccc6c5O[C@@](C)(c5ccc(Cl)cn5)O6)CC3)n4CC3CCO3)cc12 (stereo partly drawn) [Compound 382]	10.00	6.16	6.47
Cc1cc(NC(=O)c2ccc3c(c2)nc(CN2CCC(c4cccc(OCc5ccc(Cl)cc5F)n4)CC2)n3C[C@@H]2CCO2)cc2cn[nH]c12 [Compound 80]	8.69	5.63	5.93
CCn1cncc1Cn1c(Cc2c(F)cc(-c3cccc(OCc4ccc(Cl)cn4)n3)cc2F)nc2cc(NC(=O)c3cc(F)c4[nH]nc(C)c4c3)ccc21 [Compound 407]	9.80	6.74	6.96
O=C(Nc1ccc2c(c1)C1(CC1)C(=O)N2)c1ccc2c(c1)nc(CN1CCC(c3cccc(OCc4ccc(Cl)cn4)n3)CC1)n2C[C@@H]1CCO1 [Compound 101]	9.12	5.89	6.19
O=C(NCC(=O)N1C[C@H](O)C[C@H]1C(=O)O)c1ccc2c(c1)nc(CN1CCC(c3cccc(OCc4ccc(Cl)cc4F)n3)CC1)n2C[C@@H]1CCO1 [Compound 2, (2S,4R)-1-((2-((4-(6-((4-chloro-2-fluorobenzyl)oxy)pyridin-2-yl)piperidin-1-yl)methyl)-1-(((S)-oxetan-2-yl)methyl)-1H-benzo[d]imidazole-5-carbonyl)glycyl)-4-hydroxypyrrolidine-2-carboxylic acid]	9.49	6.46	6.78
Cc1n[nH]c2c(C)cc(NC(=O)c3ccc4nc(CN5CC=C(c6cccc(OCc7ccc(C#N)cc7F)n6)CC5)n(CC5CCO5)c4c3)cc12 (stereo not drawn) [Compound 276]	9.19	5.61	6.00
Cc1n[nH]c2c(C)cc(C(=O)Nc3ccc4c(c3)nc(CN3CC=C(c5cccc6c5O[C@@](C)(c5ccc(Cl)cc5F)O6)CC3)n4CC3CCO3)cc12 (stereo partly drawn) [Compound 384]	10.10	6.96	7.17
O=C(Nc1ccc2c(c1)nc(CN1CCC(c3cccc(OCc4ccc(Cl)cc4F)n3)CC1)n2C[C@@H]1CCO1)c1ccc2[nH]c(=O)[nH]c2c1 [Compound 85]	9.39	6.84	7.14
CCn1cncc1Cn1c(Cc2c(F)cc(-c3cccc4c3OC(C)(c3ccc(Cl)cn3)O4)cc2F)nc2cc(NC(=O)c3cc(F)c4[nH]nc(C)c4c3)ccc21 (stereo not drawn) [Compound 409]	9.38	6.31	6.62
Cc1n[nH]c2c(F)cc(NC(=O)c3ccc4c(c3)nc(CN3CC=C(c5cccc(OCc6ccc(Cl)cc6F)n5)CC3)n4C[C@@H]3CCO3)cc12 [Compound 153]	9.23	5.84	6.06
O=C(Nc1ccc2[nH]c(=O)[nH]c2c1)c1ccc2c(c1)nc(CN1CCC(c3cccc(OCc4ccc(Cl)cc4F)n3)CC1)n2C[C@@H]1CCO1 [Compound 90]	8.80	5.72	6.02
Cc1n[nH]c2c(F)cc(C(=O)Nc3ccc4c(c3)nc(CN3CCC(c5cccc6c5OC(C)(c5ccc(Cl)cc5F)O6)CC3)n4CC3CCO3)cc12 (stereo not drawn) [Compound 340]	9.55	6.91	7.05
CCn1cncc1Cn1c(CN2CC=C(c3cccc(OCc4ccc(Cl)cc4F)n3)CC2)nc2cc(NC(=O)c3cc(F)c4[nH]nc(C)c4c3)ccc21 [Compound 408]	9.68	6.98	7.16
Cc1n[nH]c2ccc(NC(=O)c3ccc4c(c3)nc(CN3CCC(c5cccc(OCc6ccc(Cl)cc6F)n5)CC3)n4C[C@@H]3CCO3)cc12 [Compound 88]	8.35	5.74	6.04
Cc1n[nH]c2c(C)cc(NC(=O)c3ccc4c(c3)nc(CN3CC=C(c5cccc(OCc6ccc(Cl)cc6F)n5)CC3)n4C[C@@H]3CCO3)cc12 [Compound 151]	9.22	5.98	6.28
Cc1n[nH]c2c(F)cc(C(=O)Nc3ccc4c(c3)nc(Cc3c(F)cc(-c5cccc6c5O[C@@](C)(c5ccc(Cl)cn5)O6)cc3F)n4CC3CCO3)cc12 (stereo partly drawn) [Compound 386]	9.82	6.92	7.16
Cc1n[nH]c2c(F)cc(NC(=O)c3ccc4c(c3)nc(CN3CCC(c5cccc6c5OC(C)(c5ccc(C#N)cc5F)O6)CC3)n4CC3CCO3)cc12 (stereo not drawn) [Compound 334]	9.21	5.92	6.16
CCn1cncc1Cn1c(Cc2c(F)cc(-c3cccc4c3O[C@@](C)(c3ccc(Cl)cn3)O4)cc2F)nc2cc(NC(=O)c3cc(F)c4[nH]nc(C)c4c3)ccc21 [Compound 411]	9.48	6.92	7.14
Cc1n[nH]c2ccc(NC(=O)c3ccc4c(c3)nc(CN3CC=C(c5cccc(OCc6ccc(Cl)cn6)n5)CC3)n4C[C@@H]3CCO3)cc12 [Compound 145]	9.35	5.72	6.02
Cc1n[nH]c2c(C)cc(NC(=O)c3ccc4c(c3)nc(CN3CC=C(c5cccc(OCc6ccc(C#N)c7cc(Cl)oc67)n5)CC3)n4C[C@@H]3CCO3)cc12 [Compound 354]	9.68	5.67	5.98
Cc1n[nH]c2c(C)cc(C(=O)Nc3ccc4c(c3)nc(CN3CC=C(c5cccc6c5O[C@](C)(c5ccc(Cl)cc5F)O6)CC3)n4CC3CCO3)cc12 (stereo partly drawn) [Compound 385]	9.21	6.80	7.08
Cc1n[nH]c2c(C)cc(NC(=O)c3ccc4c(c3)nc(CN3CCC(c5cccc(OCc6ccc(C#N)cc6F)n5)CC3)n4C[C@@H]3CCO3)cc12 [Compound 127]	9.82	5.90	6.13
Cc1n[nH]c2c(C)cc(C(=O)Nc3ccc4c(c3)nc(C3CC35CCN(c3cccc(OCc6ccc(Cl)cc6F)n3)CC5)n4CC3CCO3)cc12 (stereo not drawn) [Compound 245]	9.29	6.84	7.08
Cc1n[nH]c2c(C)cc(C(=O)Nc3ccc4c(c3)nc(CN3CCC(c5cccc6c5OC(C)(c5ccc(Cl)cc5F)O6)CC3)n4CC3CCO3)cc12 (stereo not drawn) [Compound 341]	9.51	6.80	7.02
